Measurements from patent publication US20160002248A1, “GLS1 INHIBITORS FOR TREATING DISEASE” (Board of Regents, The University of Texas System, priority 2014, published 2016).

Experiments:
[1] = target: T1, purified recombinant human GAC (GLS1) (Homo sapiens, UniProt O94925); assay: GLS1 Enzymatic Activity Assay (dual-coupled enzymatic assay); format: biochemical
T1 sequence (O94925 55-598 isoform O94925-3 limits assumed): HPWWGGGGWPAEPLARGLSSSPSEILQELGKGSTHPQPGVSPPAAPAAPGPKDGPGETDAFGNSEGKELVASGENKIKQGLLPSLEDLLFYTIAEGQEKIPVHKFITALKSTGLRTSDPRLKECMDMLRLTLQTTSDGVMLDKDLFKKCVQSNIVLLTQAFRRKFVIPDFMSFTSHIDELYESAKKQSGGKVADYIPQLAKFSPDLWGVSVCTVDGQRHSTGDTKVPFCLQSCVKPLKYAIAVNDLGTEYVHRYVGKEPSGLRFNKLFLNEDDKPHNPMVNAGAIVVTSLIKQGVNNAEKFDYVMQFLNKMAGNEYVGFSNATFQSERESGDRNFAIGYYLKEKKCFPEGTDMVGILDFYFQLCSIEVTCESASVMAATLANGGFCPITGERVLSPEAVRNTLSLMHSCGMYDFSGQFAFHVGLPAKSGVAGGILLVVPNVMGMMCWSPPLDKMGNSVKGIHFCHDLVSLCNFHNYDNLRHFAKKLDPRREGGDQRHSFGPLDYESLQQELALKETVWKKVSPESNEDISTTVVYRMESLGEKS
Outline: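 In this coupled fluorometric format, phosphate-activated GAC (2 nM, 50 mM phosphate) is pre-exposed to compound for 10 min before 1 mM glutamine addition. Product is tracked as resorufin (530/590 nm) over time or at 20 min, and potency is derived by logistic fitting.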

[2] = system: A549 cells; assay: Proliferation Assay (A549 cell viability, Cell Titer Fluor); format: cell-based; conditions: 72 hours
Outline: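 A549 cells in RPMI 1640 with 10% dialyzed FBS were seeded at 1000 cells/well, grown 24 h, then exposed to compound (0.5% DMSO final) for 72 h at 37 °C, 5% CO2. Viability was read by Cell Titer Fluor fluorescence; EC50 from four-parameter logistic fit.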

| Compound | IC50 [1] | EC50 ([2]; Homo sapiens) | EC50 [2] |
| --- | --- | --- | --- |
| Cc1ccncc1CNC(=O)c1cn(CCCCc2cc3cc(C4CC4)[nH]c3nn2)nn1 [Example 47, 1-(4-{6-cyclopropyl-7H-pyrrolo[2,3-c]pyridazin-3-yl}butyl)-N-[(4-methylpyridin-3-yl)methyl]-1H-1,2,3-triazole-4-carboxamide] | 100 to 500 nM | 500 to 5000 nM | – |
| COc1cccc(CNC(=O)c2cn(CCCCc3cc4cc(C5CC5)[nH]c4nn3)nn2)n1 [Example 33, 1-(4-{6-cyclopropyl-7H-pyrrolo[2,3-c]pyridazin-3-yl}butyl)-N-[(6-methoxypyridin-2-yl)methyl]-1H-1,2,3-triazole-4-carboxamide] | 100 to 500 nM | 500 to 5000 nM | – |
| CNC(=O)c1nnc(CCCCc2cc3cc(Cc4ccccc4)[nH]c3nn2)s1 [Example 70, 5-(4-{6-benzyl-7H-pyrrolo[2,3-c]pyridazin-3-yl}butyl)-N-methyl-1,3,4-thiadiazole-2-carboxamide] | 100 to 500 nM | 100 to 500 nM | – |
| CC(C)c1cc2cc(CCCCn3cc(C(=O)NCc4ccccn4)nn3)nnc2[nH]1 [Example 12, 1-(4-(6-isopropyl-7H-pyrrolo[2,3-c]pyridazin-3-yl)butyl)-N-(pyridin-2-ylmethyl)-1H-1,2,3-triazole-4-carboxamide] | 100 to 500 nM | 500 to 5000 nM | – |
| COc1ccnc(CNC(=O)c2cn(CCCCc3cc4cc(C5CC5)[nH]c4nn3)nn2)c1 [Example 39, 1-(4-{6-cyclopropyl-7H-pyrrolo[2,3-c]pyridazin-3-yl}butyl)-N-[(4-methoxypyridin-2-yl)methyl]-1H-1,2,3-triazole-4-carboxamide] | 100 to 500 nM | 100 to 500 nM | – |
| COc1ncccc1CNC(=O)c1cn(CCCCc2cc3cc(C4CC4)[nH]c3nn2)nn1 [Example 49, 1-(4-{6-cyclopropyl-7H-pyrrolo[2,3-c]pyridazin-3-yl}butyl)-N-[(2-methoxypyridin-3-yl)methyl]-1H-1,2,3-triazole-4-carboxamide] | 500 to 5000 nM | 500 to 5000 nM | – |
| Cn1cnc(CNC(=O)c2cn(CCCCc3cc4cc(C5CC5)[nH]c4nn3)nn2)c1 [Example 45, 1-(4-{6-cyclopropyl-7H-pyrrolo[2,3-c]pyridazin-3-yl}butyl)-N-[(1-methyl-1H-imidazol-4-yl)methyl]-1H-1,2,3-triazole-4-carboxamide] | 100 to 500 nM | 500 to 5000 nM | – |
| O=C(NCc1ccccc1)c1nnc(CCCCc2cc3cc(Cc4ccccc4)[nH]c3nn2)s1 [Example 73, N-benzyl-5-(4-{6-benzyl-7H-pyrrolo[2,3-c]pyridazin-3-yl}butyl)-1,3,4-thiadiazole-2-carboxamide] | < 100 nM | 500 to 5000 nM | – |
| O=C(NCC1CCOCC1)c1nnc(CCCCc2cc3cc(Cc4ccccc4)[nH]c3nn2)s1 [Example 78, 5-(4-{6-benzyl-7H-pyrrolo[2,3-c]pyridazin-3-yl}butyl)-N-(oxan-4-ylmethyl)-1,3,4-thiadiazole-2-carboxamide] | 100 to 500 nM | 500 to 5000 nM | – |
| O=C(NCC1CCOC1)c1nnc(CCCCc2cc3cc(Cc4ccccc4)[nH]c3nn2)s1 (centres unmarked) [Example 82, 5-(4-{6-benzyl-7H-pyrrolo[2,3-c]pyridazin-3-yl}butyl)-N-(oxolan-3-ylmethyl)-1,3,4-thiadiazole-2-carboxamide] | 100 to 500 nM | 500 to 5000 nM | – |
| N-(5-(4-(7H-pyrrolo[2,3-c]pyridazin-3-yl)butyl)-1,3,4-thiadiazol-2-yl)-2-phenylacetamide [Example 64] | < 100 nM | – | 500 to 5000 nM |

The remaining lines, values ahead:

| IC50 [1] | EC50 ([2]; Homo sapiens) | EC50 [2] | Compound |
| --- | --- | --- | --- |
| < 100 nM | < 100 nM | – | CC(C)(C(=O)N1CC(c2cc3cc(CCCCn4cc(C(=O)NCc5cc(OC(F)(F)F)ccc5F)nn4)nnc3[nH]2)C1)C(F)(F)F [Example 229, N-(2-fluoro-5-(trifluoromethoxy)benzyl)-1-(4-(6-(1-(3,3,3-trifluoro-2,2-dimethylpropanoyl)azetidin-3-yl)-7H-pyrrolo[2,3-c]pyridazin-3-yl)butyl)-1H-1,2,3-triazole-4-carboxamide] |
| < 100 nM | 100 to 500 nM | – | Cc1ccc(CNC(=O)c2cn(CC(F)CCc3cc4cc(C5CC5)[nH]c4nn3)nn2)cn1 (centres unmarked) [Example 231, 1-(4-{6-cyclopropyl-7H-pyrrolo[2,3-c]pyridazin-3-yl)-2-fluorobutyl)-N-[(6-methylpyridin-3-yl)methyl]-1H-1,2,3-triazole-4-carboxamide] |
| < 100 nM | 100 to 500 nM | – | O=C(NCc1cc(OC(F)(F)F)ccc1F)c1cn(CCCCc2cc3c(Cc4ccccn4)c(C4CC4)[nH]c3nn2)nn1 [Example 127, 1-{4-[6-cyclopropyl-5-(pyridin-2-ylmethyl)-7H-pyrrolo[2,3-c]pyridazin-3-yl]butyl}-N-{[2-fluoro-5-(trifluoromethoxy)phenyl]methyl}-1H-1,2,3-triazole-4-carboxamide] |
| < 100 nM | 500 to 5000 nM | – | O=C(Cc1ccccc1)Nc1ccn(CCCCc2cc3cc(Cc4ccccc4)[nH]c3nn2)c(=O)c1 [Example 9, N-(1-(4-(6-Benzyl-7H-pyrrolo[2,3-c]pyridazin-3-yl)butyl)-2-oxo-1,2-dihydropyridin-4-yl)-2-phenylacetamide] |
| < 100 nM | < 100 nM | – | O=C(NCc1cc(C2CC2)ccn1)c1cn(CC(F)CCc2cc3cc(-c4ccccc4F)[nH]c3nn2)nn1 (centres unmarked) [Example 244, N-[(4-cyclopropylpyridin-2-yl)methyl]-1-{2-fluoro-4-[6-(2-fluorophenyl)-7H-pyrrolo[2,3-c]pyridazin-3-yl]butyl}-1H-1,2,3-triazole-4-carboxamide] |
| < 100 nM | 500 to 5000 nM | – | O=C(NCc1ccccn1)c1cn(CCCCc2cc3c(Cc4ccc(Cl)nc4)c(C4CC4)[nH]c3nn2)nn1 [Example 114, 1-(4-(5-((6-chloropyridin-3-yl)methyl)-6-cyclopropyl-7H-pyrrolo[2,3-c]pyridazin-3-yl)butyl)-N-(pyridin-2-ylmethyl)-1H-1,2,3-triazole-4-carboxamide 2,2,2-trifluoroacetate] |
| < 100 nM | 100 to 500 nM | – | O=C(Cc1ccccn1)Nc1nnc(CCCCc2cc3cc(Cc4ccccc4)[nH]c3nn2)s1 [Example 26, N-[5-(4-{6-benzyl-7H-pyrrolo[2,3-c]pyridazin-3-yl}butyl)-1,3,4-thiadiazol-2-yl]-2-(pyridin-2-yl)acetamide] |
| < 100 nM | 100 to 500 nM | – | Cc1ccc(CNC(=O)c2cn(CCCCc3cc4cc(C5CC5)[nH]c4nn3)nn2)cn1 [Example 35, 1-(4-{6-cyclopropyl-7H-pyrrolo[2,3-c]pyridazin-3-yl}butyl)-N-[(6-methylpyridin-3-yl)methyl]-1H-1,2,3-triazole-4-carboxamide] |
| < 100 nM | 500 to 5000 nM | – | O=C(NCc1ccccc1)c1cn(CCCCc2cc3cc(Cc4ccccc4)[nH]c3nn2)nn1 [Example 14, N-benzyl-1-(4-(6-benzyl-7H-pyrrolo[2,3-c]pyridazin-3-yl)butyl)-1H-1,2,3-triazole-4-carboxamide] |
| < 100 nM | < 100 nM | – | O=C(NCc1cc(OC(F)(F)F)ccc1F)c1cn(CCCCc2cc3cc(C4CN(C(=O)OCC(F)(F)F)C4)[nH]c3nn2)nn1 [Example 148, 2,2,2-trifluoroethyl 3-(3-{4-[4-({[2-fluoro-5-(trifluoromethoxy)phenyl]methyl}carbamoyl)-1H-1,2,3-triazol-1-yl]butyl}-7H-pyrrolo[2,3-c]pyridazin-6-yl)azetidine-1-carboxylate] |
| < 100 nM | 100 to 500 nM | – | CC(C)(O)c1ccc(CNC(=O)c2cn(CCCCc3cc4c(-c5cccc(OC(F)(F)F)c5)c(C5CC5)[nH]c4nn3)nn2)cn1 [Example 169, 1-(4-{6-cyclopropyl-5-[3-(trifluoromethoxy)phenyl]-7H-pyrrolo[2,3-c]pyridazin-3-yl}butyl)-N-{[6-(2-hydroxypropan-2-yl)pyridin-3-yl]methyl}-1H-1,2,3-triazole-4-carboxamide] |
| < 100 nM | 100 to 500 nM | – | CC(=O)N1CCC(c2cc3cc(CCCCn4cc(C(=O)NCc5cc(OC(F)(F)F)ccc5F)nn4)nnc3[nH]2)CC1 [Example 156, 1-{4-[6-(1-acetylpiperidin-4-yl)-7H-pyrrolo[2,3-c]pyridazin-3-yl]butyl}-N-{[2-fluoro-5-(trifluoromethoxy)phenyl]methyl}-1H-1,2,3-triazole-4-carboxamide] |
| < 100 nM | 500 to 5000 nM | – | O=C(NCc1ccccn1)c1cn(CCCCc2cc3cc(-c4cccc(OC(F)(F)F)c4)[nH]c3nn2)nn1 [Example 149, N-(pyridin-2-ylmethyl)-1-(4-{6-[3-(trifluoromethoxy)phenyl]-7H-pyrrolo[2,3-c]pyridazin-3-yl}butyl)-1H-1,2,3-triazole-4-carboxamide] |
| < 100 nM | 100 to 500 nM | – | O=C(NCc1cc(OC(F)(F)F)ccc1F)c1cn(CCCCc2cc3cc(C4CCN(C(=O)CC(F)(F)F)CC4)[nH]c3nn2)nn1 [Example 157, N-{[2-fluoro-5-(trifluoromethoxy)phenyl]methyl)-1-(4-{6-[1-(3,3,3-trifluoropropanoyl)piperidin-4-yl]-7H-pyrrolo[2,3-c]pyridazin-3-yl}butyl)-1H-1,2,3-triazole-4-carboxamide] |
